Data on one molecule can be found in patent US10603298B2, “Succinate dehydrogenase inhibitors (SDHi's)” (Medical Research Council, priority 2014, dated 2020).

Assay [1] relates to mouse heart IR injury (myocardial infarction). Description: In vivo mouse cardiac IR injury (LAD ligation), infarct size by triphenyltetrazolium chloride staining. Conditions: dimethyl succinate 8 mg/kg/min infused in combination with dimethyl malonate. Here is the method:
For the in vivo heart IR model an open-chest, in situ heart model was used^31,32. Male mice (8-10 weeks; Charles River Laboratories, UK) were anaesthetised with sodium pentobarbital (70 mg/kg intraperitoneally (i.p.)), intubated endotracheally and ventilated with 3 cm H2O positive-end expiratory pressure. Adequacy of anaesthesia was monitored using corneal and withdrawal reflexes. Ventilation frequency was kept at 110 breaths per minute with tidal volume between 125-150 μL. A thoracotomy was performed and the heart exposed by stripping the pericardium. A prominent branch of the left anterior descending coronary artery (LAD) was surrounded by a 7-0 Prolene suture that was then passed through a small plastic tube. Ischaemia was induced by tightening the tubing against the heart surface. To assess metabolites during IR in vivo, mice were divided into three groups: 30 min ischaemia, 30 min ischaemia plus 5 min reperfusion and 30 min sham-operation in which the suture was placed but the LAD was not occluded. At the end of each protocol tissue was removed from the at risk and peripheral areas of the heart, selected visually by comparing white versus red tissue, and snap-frozen in liquid nitrogen. […] Infarct size was assessed after 30 min of ischaemia followed by 120 min reperfusion using 2% triphenyltetrazolium chloride staining and is expressed as a percentage of the risk zone^33. […]

Assay [2] concerns adult primary rat cardiomyocytes. Description: ROS production (DHE oxidation) in adult primary cardiomyocytes during in situ IR. The following applies: 40 min ischaemia then reoxygenation, 4 mM in ischaemic buffer. It counts as cell-based. Here is the method: FIG. 13: Tracking cardiomyocytes ROS levels in primary cardiomyocytes during in situ IR. Primary rat cardiomyocytes were subjected to 40 min ischaemia and reoxygenation with ROS levels tracked throughout the experiment by ratiometric measurement of dihydroethidium (DHE) oxidation. […] Representative traces of each condition are shown. The highlighted window indicates the period of the experiment expanded in detail in FIG. 3.a.
(§1) Male Sprague-Dawley rats (300-370 g) were terminally anaesthetised via IP injections of 200 mg/kg sodium pentobarbitone and 330 U/kg heparin. Hearts were excised and retrograde perfused on a Langendorff-perfusion system with 13 mL/min oxygenated KH buffer at 37° C. Cells were isolated by collagenase digestion using standard methods^41. […]
(§2) Cells were imaged within 36 hours of plating. […] Simulated ischaemia was achieved by replacing the buffer with a pre-gassed, hypoxic recording buffer simulating ischaemia (as above but lacking glucose and containing 10 mM sodium lactate, 14.8 mM KCl; pH 6.4) and by covering the heated stage with a transparent, gas-impermeant lid, forming a small chamber into which argon was forced to maintain hypoxia. pO2 was routinely measured as <2.0 mm Hg during simulated ischaemia. […]
(§3) ROS production was estimated by oxidation of DHE. […] All measured cell parameters were analysed with Fiji image processing software.

Assay [3] shares this test system. As to the kind of experiment: NAD(P)H autofluorescence in primary cardiomyocytes during in situ IR. It counts as cell-based. Conditions: 4 mM in ischaemic buffer. The procedure:
FIG. 14: Tracking NADH reduction state in primary cardiomyocytes during in situ IR. Primary rat cardiomyocytes were subjected to 40 min ischaemia and reoxygenation and NADH reduction state was tracked throughout the experiment by measurement of NAD(P)H autofluorescence. […] Representative traces of each condition are shown. The highlighted window indicates the period of the experiment expanded in detail in FIG. 3c.
as §1, §2, §3

Assay [4] concerns C2C12 myoblasts. As to the kind of experiment: Succinate-dependent mitochondrial superoxide production (MitoSOX) in myoblasts. Type of assay: cell-based, mouse. Conditions: C2C12 cells, normoxic, mitochondria hyperpolarised with oligomycin. Here is the method: C2C12 myoblasts were seeded in 35 mm glass bottom culture dishes (MatTek) and incubated for 24 h in low glucose (1 g/L) DMEM. 2 h prior to imaging DMEM was removed, and replaced with imaging buffer (132 mM NaCl; […]; 4.2 mM KCl; 1 mM MgCl2 1 mM CaCl2 adjusted to pH 7.4 with Tris base and supplemented with 2-deoxyglucose (25 μM), and sodium pyruvate (10 mg/L or 4 μM oligomycin as indicated). Myoblasts were pre-incubated with 2 μM MitoSOX for 15 min prior to imaging. MitoSOX fluorescence was monitored using a Nikon Eclipse Ti confocal microscope at 37° C. on a temperature controlled stage for 30 min. MitoSOX was excited at 510 nm and the emitted signal collected with a LP 560 filter following the indicated additions.

“Also recorded” adds a separate entry of the source.

As for `COC(=O)CCC(=O)OC` [dimethyl succinate], the “cardioprotection by dimethyl malonate after adding back dimethyl succinate” value in assay [1] was “cardioprotection was suppressed”. The “ROS production / DHE oxidation upon reperfusion” value in assay [2] is “significantly increased mitochondrial ROS production during reperfusion; also recorded: amplified reperfusion DHE oxidation”. For the same molecule, in assay [3], the “NAD(P)H oxidation at reperfusion” value was “suppressed”. In addition, in assay [4], the MitoSOX oxidation entry is “increased MitoSOX oxidation”.
